Results from ChEMBL document CHEMBL1201862, “PubChem BioAssay data set” (2004).
Calls of active or inactive are those of the source.

Key:
[1] = molecular target: G-protein coupled receptor 55 (Homo sapiens, UniProt Q9Y2T6); assay: GPR55 agonists via beta-arrestin recruitment, primary screen, imaging, U2OS cells, beta-arrestin-GFP redistribution (AID 1961); type: functional
[2] = A cytotoxicity screen of small molecule inhibitors of the PhoP region in Salmonella typhi identified in the primary screen. [Related pubchem assays: 1850, 1864, 1985 ]; type: functional
Bcl-2-like protein 10 = Bcl-2-like protein 10 (Homo sapiens, UniProt Q9HD36); assay: displacers of TR3 peptide from Bcl-B, primary screen, selectivity assay for Bfl-1 inhibitor project, biochemical, fluorescence polarization, FITC-TR3 peptide (AID 748);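 note: fluorescence polarization from a fluorescein-labelled TR3 peptide binding purified Bcl-B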
Sequence of Bcl-2-like protein 10 (Q9HD36 whole entry): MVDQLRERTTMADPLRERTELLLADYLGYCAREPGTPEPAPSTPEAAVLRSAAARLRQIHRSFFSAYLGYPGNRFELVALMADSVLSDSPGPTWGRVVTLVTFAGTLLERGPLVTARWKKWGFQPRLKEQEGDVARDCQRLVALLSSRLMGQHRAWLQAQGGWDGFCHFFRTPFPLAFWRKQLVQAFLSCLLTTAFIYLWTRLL

Estrogen receptor beta = Estrogen receptor beta (Homo sapiens, UniProt Q92731);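 note: recombinant ER-beta bound to coactivator SRC1 peptide in presence of estradiol agonist; inhibitors block coactivator peptide binding and lower the FRET signal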
Sequence of Estrogen receptor beta (Q92731 whole entry): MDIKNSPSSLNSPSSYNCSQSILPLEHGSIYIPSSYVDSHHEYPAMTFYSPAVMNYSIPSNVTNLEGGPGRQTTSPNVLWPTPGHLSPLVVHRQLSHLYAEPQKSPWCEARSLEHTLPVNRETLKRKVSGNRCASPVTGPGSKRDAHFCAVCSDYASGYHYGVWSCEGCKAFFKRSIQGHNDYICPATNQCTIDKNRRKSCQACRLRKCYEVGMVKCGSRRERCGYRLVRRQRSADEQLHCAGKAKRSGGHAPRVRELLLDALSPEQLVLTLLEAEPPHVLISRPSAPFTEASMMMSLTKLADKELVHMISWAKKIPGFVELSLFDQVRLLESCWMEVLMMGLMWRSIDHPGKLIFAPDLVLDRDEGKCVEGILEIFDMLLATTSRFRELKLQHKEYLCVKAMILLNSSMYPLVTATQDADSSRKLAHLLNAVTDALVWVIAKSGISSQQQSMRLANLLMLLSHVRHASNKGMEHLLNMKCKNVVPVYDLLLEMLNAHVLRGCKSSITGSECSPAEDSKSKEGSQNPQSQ

Estrogen receptor = Estrogen receptor (Homo sapiens, UniProt P03372);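 note: potency for inhibiting coactivator peptide recruitment to the receptor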
Sequence of Estrogen receptor (P03372 whole entry): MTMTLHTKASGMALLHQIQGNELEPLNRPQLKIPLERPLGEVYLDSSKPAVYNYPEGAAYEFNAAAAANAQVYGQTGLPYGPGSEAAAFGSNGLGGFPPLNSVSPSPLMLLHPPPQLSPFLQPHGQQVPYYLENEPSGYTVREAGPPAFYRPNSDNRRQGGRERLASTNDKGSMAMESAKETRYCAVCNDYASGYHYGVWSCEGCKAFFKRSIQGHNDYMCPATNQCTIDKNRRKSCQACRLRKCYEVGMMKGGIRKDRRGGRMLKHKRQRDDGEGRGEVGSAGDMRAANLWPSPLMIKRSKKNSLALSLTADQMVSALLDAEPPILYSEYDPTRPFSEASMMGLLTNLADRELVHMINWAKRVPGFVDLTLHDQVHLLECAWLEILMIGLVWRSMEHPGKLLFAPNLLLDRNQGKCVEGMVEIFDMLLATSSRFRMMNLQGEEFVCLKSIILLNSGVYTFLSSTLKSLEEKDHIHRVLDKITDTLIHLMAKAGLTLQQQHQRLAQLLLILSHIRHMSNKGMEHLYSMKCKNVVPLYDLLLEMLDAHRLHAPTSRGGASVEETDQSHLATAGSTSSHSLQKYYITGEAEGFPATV

Aminopeptidase N = molecular target: T1, Aminopeptidase N (Plasmodium falciparum FcB1/Columbia, UniProt O96935); assay: P. falciparum M1AAP inhibitors, biochemical, fluorogenic H-Leu-NHMec substrate, 1536-well (AID 1445); design: species or system Plasmodium falciparum 3D7, 3D7
T1 sequence (O96935 whole entry): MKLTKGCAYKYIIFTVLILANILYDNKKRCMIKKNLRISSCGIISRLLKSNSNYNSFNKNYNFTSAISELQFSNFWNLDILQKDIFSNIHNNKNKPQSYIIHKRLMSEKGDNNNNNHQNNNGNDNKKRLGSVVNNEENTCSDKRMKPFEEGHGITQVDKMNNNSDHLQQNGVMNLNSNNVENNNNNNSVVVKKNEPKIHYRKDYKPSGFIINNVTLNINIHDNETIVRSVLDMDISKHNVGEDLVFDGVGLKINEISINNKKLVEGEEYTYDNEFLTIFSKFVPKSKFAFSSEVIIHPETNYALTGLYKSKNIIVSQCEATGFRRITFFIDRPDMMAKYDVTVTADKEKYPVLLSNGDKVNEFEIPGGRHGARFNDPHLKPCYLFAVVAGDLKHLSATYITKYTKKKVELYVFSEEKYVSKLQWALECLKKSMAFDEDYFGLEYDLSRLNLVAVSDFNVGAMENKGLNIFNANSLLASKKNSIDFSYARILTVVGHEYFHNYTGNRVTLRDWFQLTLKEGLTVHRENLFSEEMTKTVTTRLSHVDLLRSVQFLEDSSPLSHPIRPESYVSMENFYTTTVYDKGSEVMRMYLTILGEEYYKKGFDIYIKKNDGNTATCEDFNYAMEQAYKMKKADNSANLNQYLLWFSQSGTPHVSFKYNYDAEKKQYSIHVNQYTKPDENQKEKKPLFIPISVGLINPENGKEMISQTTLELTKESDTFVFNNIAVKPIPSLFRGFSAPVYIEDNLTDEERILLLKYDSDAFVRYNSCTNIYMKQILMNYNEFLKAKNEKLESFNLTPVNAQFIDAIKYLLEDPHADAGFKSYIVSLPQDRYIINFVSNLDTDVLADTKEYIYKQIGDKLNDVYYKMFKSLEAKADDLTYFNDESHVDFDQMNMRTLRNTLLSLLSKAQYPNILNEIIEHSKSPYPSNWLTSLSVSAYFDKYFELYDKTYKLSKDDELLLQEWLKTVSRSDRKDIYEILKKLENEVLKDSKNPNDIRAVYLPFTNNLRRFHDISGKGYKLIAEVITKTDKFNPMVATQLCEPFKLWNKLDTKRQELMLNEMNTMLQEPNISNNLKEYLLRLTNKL

[3] = molecular target: Transitional endoplasmic reticulum ATPase (Homo sapiens, UniProt P55072, C522A); assay: C522A mutant p97 ATPase inhibitors, dose response, counter-screen for p97 inhibitor project, biochemical, luminescence (AID 1544)
Sequence of Transitional endoplasmic reticulum ATPase (Homo sapiens, UniProt P55072, C522A) (P55072 2-806 C522A limits assumed): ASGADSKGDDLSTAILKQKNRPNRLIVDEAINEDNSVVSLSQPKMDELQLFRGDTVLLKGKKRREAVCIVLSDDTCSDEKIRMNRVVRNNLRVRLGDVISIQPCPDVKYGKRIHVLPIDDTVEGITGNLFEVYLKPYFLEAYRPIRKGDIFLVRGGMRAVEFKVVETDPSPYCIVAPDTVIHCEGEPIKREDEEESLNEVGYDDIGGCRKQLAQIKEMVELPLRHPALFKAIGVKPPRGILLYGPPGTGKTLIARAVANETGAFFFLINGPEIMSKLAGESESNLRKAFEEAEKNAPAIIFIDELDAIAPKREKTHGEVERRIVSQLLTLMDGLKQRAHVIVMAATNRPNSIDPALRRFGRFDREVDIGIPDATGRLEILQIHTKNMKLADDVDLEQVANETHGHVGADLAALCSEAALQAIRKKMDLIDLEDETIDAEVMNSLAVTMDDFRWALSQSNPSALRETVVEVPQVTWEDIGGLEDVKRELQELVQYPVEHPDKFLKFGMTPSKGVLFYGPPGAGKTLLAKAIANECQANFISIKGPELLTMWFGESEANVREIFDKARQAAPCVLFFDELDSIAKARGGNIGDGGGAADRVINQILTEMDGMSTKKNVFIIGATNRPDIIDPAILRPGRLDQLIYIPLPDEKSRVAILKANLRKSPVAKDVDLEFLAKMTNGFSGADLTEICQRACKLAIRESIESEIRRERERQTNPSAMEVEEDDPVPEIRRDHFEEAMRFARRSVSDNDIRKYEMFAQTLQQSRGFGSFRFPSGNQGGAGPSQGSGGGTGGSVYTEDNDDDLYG

[4] = molecular target: T2, Trace amine-associated receptor 1 (Homo sapiens, UniProt Q96RJ0); assay: Fluorescence-based cell-based high throughput dose response assay to identify agonists of the human trace amine associated receptor 1 (TAAR1).; type: functional
T2 sequence (Q96RJ0 whole entry): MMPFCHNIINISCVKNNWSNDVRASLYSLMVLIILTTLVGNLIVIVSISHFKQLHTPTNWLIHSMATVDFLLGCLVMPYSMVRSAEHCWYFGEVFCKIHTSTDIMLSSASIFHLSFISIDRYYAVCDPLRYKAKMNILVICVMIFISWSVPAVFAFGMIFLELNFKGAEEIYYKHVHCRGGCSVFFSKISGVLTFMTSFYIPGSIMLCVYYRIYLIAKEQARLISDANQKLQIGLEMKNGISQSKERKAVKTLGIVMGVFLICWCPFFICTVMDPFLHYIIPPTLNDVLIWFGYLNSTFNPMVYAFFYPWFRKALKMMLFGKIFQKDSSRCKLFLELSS

[5] = molecular target: Induced myeloid leukemia cell differentiation protein Mcl-1 (Homo sapiens, UniProt Q07820); type: functional
Sequence of Induced myeloid leukemia cell differentiation protein Mcl-1 (Q07820 whole entry): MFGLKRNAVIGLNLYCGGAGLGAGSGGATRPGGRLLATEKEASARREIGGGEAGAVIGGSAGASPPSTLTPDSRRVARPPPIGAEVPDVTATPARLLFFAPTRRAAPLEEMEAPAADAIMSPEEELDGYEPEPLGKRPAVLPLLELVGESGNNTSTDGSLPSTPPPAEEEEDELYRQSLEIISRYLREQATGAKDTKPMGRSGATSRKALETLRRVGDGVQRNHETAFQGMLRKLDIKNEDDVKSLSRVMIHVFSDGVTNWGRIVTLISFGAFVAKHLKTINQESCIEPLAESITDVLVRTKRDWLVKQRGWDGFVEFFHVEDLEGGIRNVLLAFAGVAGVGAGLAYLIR

[6] = molecular target: T3, Rac GTPase-activating protein 1 (Homo sapiens, UniProt Q9H0H5); assay: MgcRacGAP GTPase-activating activity inhibitors, confirmation, biochemical, ADP Hunter fluorescence, primary and confirmatory (AID 624330); type: functional
T3 sequence (Q9H0H5 whole entry): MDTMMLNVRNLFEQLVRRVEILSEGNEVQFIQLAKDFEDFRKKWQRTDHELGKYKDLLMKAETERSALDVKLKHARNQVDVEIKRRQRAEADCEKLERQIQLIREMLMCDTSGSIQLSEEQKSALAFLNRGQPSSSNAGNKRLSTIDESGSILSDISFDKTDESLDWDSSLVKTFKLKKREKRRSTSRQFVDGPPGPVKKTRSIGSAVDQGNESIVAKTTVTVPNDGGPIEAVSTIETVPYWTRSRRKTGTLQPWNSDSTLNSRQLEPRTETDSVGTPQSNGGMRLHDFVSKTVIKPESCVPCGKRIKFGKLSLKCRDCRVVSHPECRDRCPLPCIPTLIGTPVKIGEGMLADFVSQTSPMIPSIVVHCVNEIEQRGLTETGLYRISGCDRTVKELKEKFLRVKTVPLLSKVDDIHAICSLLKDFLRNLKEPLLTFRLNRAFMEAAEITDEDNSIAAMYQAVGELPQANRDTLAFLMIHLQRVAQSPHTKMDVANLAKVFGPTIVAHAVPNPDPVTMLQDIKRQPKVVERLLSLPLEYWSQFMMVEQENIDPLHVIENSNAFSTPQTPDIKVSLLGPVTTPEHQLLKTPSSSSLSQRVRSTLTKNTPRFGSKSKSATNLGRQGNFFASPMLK

[7] = cytotoxicity in MIN6 insulinoma cells, dose response, cytotoxicity control, cell-based, mouse insulinoma (AID 2122); type: functional;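 note: confirmatory high-throughput counterscreen run to flag cytotoxic compounds; mouse MIN-6 beta cells carrying an insulin promoter eGFP reporter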
cells [8] = type: functional, cell-based
[9] = HeLa cell cytotoxicity, dose response, cytotoxicity control for MgcRacGAP inhibitor project (AID 624300); type: functional
Caspase-6 = molecular target: T4, Caspase-6 (Homo sapiens, UniProt P55212); assay: human caspase-6 inhibitors, dose response, biochemical, VEID-R110 fluorescence, cherry-pick (AID 720632)
T4 sequence (P55212 whole entry): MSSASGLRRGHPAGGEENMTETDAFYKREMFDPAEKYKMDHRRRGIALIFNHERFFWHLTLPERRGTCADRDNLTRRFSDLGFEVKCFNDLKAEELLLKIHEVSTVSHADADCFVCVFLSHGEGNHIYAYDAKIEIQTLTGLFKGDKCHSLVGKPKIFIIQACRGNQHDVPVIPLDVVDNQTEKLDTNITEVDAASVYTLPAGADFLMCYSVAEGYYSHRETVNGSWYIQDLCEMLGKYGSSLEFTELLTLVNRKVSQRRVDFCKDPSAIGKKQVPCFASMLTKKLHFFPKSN

[10] = insulin promoter down-regulators in MIN6 cells, imaging, high-content screening, mouse beta cells (AID 1628); type: functional
cells [11] = type: functional, cell-based; remark: listed apart in the source
[12] = molecular target: Transitional endoplasmic reticulum ATPase (Homo sapiens, UniProt P55072); assay: p97 ATPase inhibitors, dose response, biochemical (AID 1534)
[13] = NIH-3T3 fibroblast cytotoxicity, dose response, cytotoxicity control, cell-based, fluorescence, Alamar Blue, secondary assay (AID 2327); type: functional;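 note: NIH-3T3 mouse fibroblasts cultured with fluconazole at 8 µg/mL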
[14] = molecular target: T2, Trace amine-associated receptor 1; assay: Counterscreen for agonists of the human trace amine associated receptor 1 (hTAAR1): Fluorescence-based cell-based high throughput dose response assay to identify hTAAR1 agonist that also desensitize TAAR1 receptor response.; type: functional
[15] = A High Throughput Confirmatory Assay used to Identify Novel Compounds that Inhibit Mycobacterium Tuberculosis in the absence of Glycerol.; type: functional
Trypsin = Trypsin (Sus scrofa, UniProt P00761); assay: porcine trypsin inhibitors, dose response, selectivity assay for Rce1 protease inhibitor project, biochemical, quenched peptide fluorescence, cherry-pick (AID 488789)
Sequence of Trypsin (P00761 whole entry): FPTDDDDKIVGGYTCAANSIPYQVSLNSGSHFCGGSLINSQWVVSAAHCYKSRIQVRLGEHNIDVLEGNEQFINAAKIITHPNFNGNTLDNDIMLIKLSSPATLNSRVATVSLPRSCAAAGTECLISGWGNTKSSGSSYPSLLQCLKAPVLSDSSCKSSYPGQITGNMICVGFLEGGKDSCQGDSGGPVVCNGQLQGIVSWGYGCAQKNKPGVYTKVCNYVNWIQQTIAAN

[16] = molecular target: Eukaryotic translation initiation factor 4H (Homo sapiens, UniProt Q15056); assay: human eIF4H binding inhibitors, primary screen, translation initiation inhibitor project, biochemical, uHTS, fluorescence polarization (AID 2012)
[17] = molecular target: DNA dC->dU-editing enzyme APOBEC-3G (Homo sapiens, UniProt Q9HC16); type: functional;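 note: Dose-response counterscreen measuring inhibition of APOBEC3G DNA deaminase activity, run while confirming APOBEC3A inhibitors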
Sequence of DNA dC->dU-editing enzyme APOBEC-3G (Q9HC16 whole entry): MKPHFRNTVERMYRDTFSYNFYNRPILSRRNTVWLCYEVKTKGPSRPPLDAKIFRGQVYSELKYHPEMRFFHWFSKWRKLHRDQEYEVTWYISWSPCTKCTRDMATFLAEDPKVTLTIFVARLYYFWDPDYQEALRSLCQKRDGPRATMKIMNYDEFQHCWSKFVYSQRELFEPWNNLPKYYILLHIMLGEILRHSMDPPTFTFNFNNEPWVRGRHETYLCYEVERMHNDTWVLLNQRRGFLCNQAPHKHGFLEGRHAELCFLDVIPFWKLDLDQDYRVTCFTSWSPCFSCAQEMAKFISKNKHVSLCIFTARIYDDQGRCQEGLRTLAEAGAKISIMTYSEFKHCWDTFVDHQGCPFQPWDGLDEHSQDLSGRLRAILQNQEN

[18] = molecular target: Polyadenylate-binding protein 1 (Homo sapiens, UniProt P11940); assay: PABP poly(A) RNA binding inhibitors, primary screen, biochemical, fluorescence polarization, uHTS (AID 2014)
Sequence of Polyadenylate-binding protein 1 (P11940 whole entry): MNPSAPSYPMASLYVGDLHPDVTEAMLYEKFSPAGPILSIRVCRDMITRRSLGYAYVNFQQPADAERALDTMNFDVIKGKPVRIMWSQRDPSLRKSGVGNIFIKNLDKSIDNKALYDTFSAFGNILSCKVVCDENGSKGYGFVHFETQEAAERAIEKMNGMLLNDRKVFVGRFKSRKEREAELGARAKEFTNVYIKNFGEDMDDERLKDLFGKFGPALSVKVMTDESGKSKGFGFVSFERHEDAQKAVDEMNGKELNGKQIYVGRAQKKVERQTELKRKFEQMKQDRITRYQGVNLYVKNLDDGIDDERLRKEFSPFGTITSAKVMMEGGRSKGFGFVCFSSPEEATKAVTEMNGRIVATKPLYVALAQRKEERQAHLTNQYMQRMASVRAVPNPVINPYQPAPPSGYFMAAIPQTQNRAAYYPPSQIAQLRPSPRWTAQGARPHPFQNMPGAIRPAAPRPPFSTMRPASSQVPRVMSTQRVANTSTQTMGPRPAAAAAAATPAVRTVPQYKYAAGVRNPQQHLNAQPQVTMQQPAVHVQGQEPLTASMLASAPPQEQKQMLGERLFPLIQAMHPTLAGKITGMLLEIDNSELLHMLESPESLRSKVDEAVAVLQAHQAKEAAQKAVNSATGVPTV

[19] = molecular target: DNA dC->dU-editing enzyme APOBEC-3A (Homo sapiens, UniProt P31941); assay: Dose Response confirmation of small molecule APOBEC3A DNA Deaminase Inhibitors via a fluorescence-based single-stranded DNA deaminase assay. [Related pubchem assays (depositor defined):AID493011, AID493024]; type: functional
Sequence of DNA dC->dU-editing enzyme APOBEC-3A (P31941 whole entry): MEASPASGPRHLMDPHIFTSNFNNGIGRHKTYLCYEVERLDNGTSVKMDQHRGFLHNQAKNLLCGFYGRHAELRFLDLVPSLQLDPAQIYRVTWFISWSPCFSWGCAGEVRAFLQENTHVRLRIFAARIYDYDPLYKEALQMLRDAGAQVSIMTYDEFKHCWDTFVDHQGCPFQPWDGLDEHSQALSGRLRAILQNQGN

Sequence of G-protein coupled receptor 55 (Q9Y2T6 whole entry): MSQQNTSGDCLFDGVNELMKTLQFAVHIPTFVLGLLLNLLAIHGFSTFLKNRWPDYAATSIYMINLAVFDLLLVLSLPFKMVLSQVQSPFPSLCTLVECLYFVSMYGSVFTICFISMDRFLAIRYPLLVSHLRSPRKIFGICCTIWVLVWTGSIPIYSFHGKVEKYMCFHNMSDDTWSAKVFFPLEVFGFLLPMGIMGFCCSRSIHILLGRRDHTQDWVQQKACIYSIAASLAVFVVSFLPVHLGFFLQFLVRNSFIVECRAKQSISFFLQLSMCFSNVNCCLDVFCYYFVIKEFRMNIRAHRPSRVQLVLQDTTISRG

With O=C(CSc1nc2ccccc2o1)N1c2ccccc2Sc2ccccc21 the EC50 [1] was > 32 µM (inactive).
In the case of O=C(N/N=C/c1c(Cl)nc2ccccn2c1=O)c1cccnc1, the EC50 [2] is reported as > 50 µM (active).
For O=C(Nc1ccccc1C(=O)O)c1ccccc1, the IC50 (Bcl-2-like protein 10) was > 100 µM (inactive) and the IC50 (Estrogen receptor beta) was > 50 µM (not active).
In the case of O=C1CC(c2ccco2)CC(O)=C1/C=N/c1cc(Cl)ccc1O (stereo not given), the IC50 (Estrogen receptor) is reported as 43.8 µM (not active) and the IC50 (Aminopeptidase N) is reported as 5.58 µM (active).
In the case of Oc1ccc(/C=N/Nc2ccnc3cc(Cl)ccc23)cc1O, the IC50 [3] is reported as > 50 µM (not active), the EC50 [4] is reported as 498 nM (active) and the IC50 [5] is reported as 4.73 µM (active). For the same compound, the IC50 [6] was 30 µM (active), the IC50 [7] was 6.19 µM (active) and the EC50 (cells [8]) was > 29.9 µM (inactive). The CC50 [9] was 43.5 µM (active), the AC50 (Caspase-6) was 1.61 µM (active) and the IC50 [10] was 3.02 µM (active). The IC50 (cells [11]) was > 29.9 µM (inactive), the IC50 [12] was 36.5 µM (not active) and the EC50 [13] was 7.32 µM (active). For the same compound, the IC50 [14] was 2.47 µM (active).
With O=S1(=O)CCC(/N=C/c2ccc(-c3ccc(Cl)cc3)o2)C1 (stereo not given) the IC50 [15] was > 100 µM (active).
With N=C(N)NC(=O)c1nc(Cl)c(N)nc1N the AC50 (Trypsin) was 9.3 µM (active).
In the case of C[n+]1ccccc1/C=C1\Sc2ccccc2N1CCO, the IC50 [16] is reported as > 100 µM (inactive), the IC50 [17] is reported as 2.53 µM (active) and the IC50 [18] is reported as 2.22 µM (active). For the same compound, the IC50 [19] was 1.08 µM (active).
